Patent US7247617B2, “Sixteen-member macrolide antiinfective agents” (Kosan Biosciences Incorporated, priority 2004, dated 2007)

Key:
E. faecalis = assay: Biological activity against bacterial strains: E. faecalis; format: cell-based, Enterococcus faecalis; details: strain ATCC51575
S. epidermidis = assay: Biological activity against bacterial strains: S. epidermidis; format: cell-based, Staphylococcus epidermidis; details: strain ATCC12228
[1] = test system: a series of bacterial strains; assay: Biological activity against a series of bacterial strains (overall statements); format: cell-based
Source text: Results for S. pneumoniae, S. aureus, S. epidermidis, and E. faecalis are provided in Table B. Data on activity against H. influenzae for selected compounds are presented in Table C.

S. aureus = assay: Biological activity against bacterial strains: S. aureus; format: cell-based, Staphylococcus aureus; design: unit not given here; details: for Biological Activity, S. aureus ATCC6538p: strain ATCC6538p; for Biological Activity, S. aureus ATCC14154*: strain ATCC14154, macrolide resistant strain; for Biological Activity, S. aureus ATCC29213: strain ATCC29213; for Biological Activity, S. aureus ATCC33591*: strain ATCC33591, macrolide resistant strain; for Biological Activity, S. aureus ATCCBAA-39*: strain ATCCBAA-39, macrolide resistant strain; for Biological Activity, S. aureus ATCCBAA-44*: strain ATCCBAA-44, macrolide resistant strain
S. pneumoniae = assay: Biological activity against bacterial strains: S. pneumoniae; format: cell-based, Streptococcus pneumoniae; design: Biological Activity, S. pneumoniae ATCC6301 / Biological Activity, S. pneumoniae ATCC700671 / Biological Activity, S. pneumoniae ATCC700676* / Biological Activity, S. pneumoniae ATCC700677* / Biological Activity, S. pneumoniae ATCC700905* / Biological Activity, S. pneumoniae ATCC700906* / Biological Activity, S. pneumoniae ATCC49619: unit not given here; details: for Biological Activity, S. pneumoniae ATCC6301: strain ATCC6301; for Biological Activity, S. pneumoniae ATCC49619: strain ATCC49619; for Biological Activity, S. pneumoniae ATCC700671: strain ATCC700671; for Biological Activity, S. pneumoniae ATCC700676*: strain ATCC700676, macrolide resistant strain; for Biological Activity, S. pneumoniae ATCC700677*: strain ATCC700677, macrolide resistant strain; for Biological Activity, S. pneumoniae ATCC700905*: strain ATCC700905, macrolide resistant strain; for Biological Activity, S. pneumoniae ATCC700906*: strain ATCC700906, macrolide resistant strain

SMILES | Biological Activity, E. faecalis ATCC51575 (E. faecalis) | Biological Activity, S. epidermidis ATCC12228 (S. epidermidis) | activity of Z-configuration oxime versus its E counterpart (in words) [1] | Biological Activity, S. aureus ATCC6538p (S. aureus) | Biological Activity, S. aureus ATCC14154* (S. aureus) | Biological Activity, S. aureus ATCC29213 (S. aureus) | Biological Activity, S. aureus ATCC33591* (S. aureus) | Biological Activity, S. aureus ATCCBAA-39* (S. aureus) | Biological Activity, S. aureus ATCCBAA-44* (S. aureus) | Biological Activity, S. pneumoniae ATCC6301 (S. pneumoniae) | Biological Activity, S. pneumoniae ATCC49619 (S. pneumoniae) | Biological Activity, S. pneumoniae ATCC700671 (S. pneumoniae) | Biological Activity, S. pneumoniae ATCC700676* (S. pneumoniae) | Biological Activity, S. pneumoniae ATCC700677* (S. pneumoniae) | Biological Activity, S. pneumoniae ATCC700905* (S. pneumoniae) | Biological Activity, S. pneumoniae ATCC700906* (S. pneumoniae)
CC[C@H]1OC(=O)C[C@@H](O)[C@H](C)[C@@H](OC2OC(C)C(O)C(N(C)C)C2O)[C@@H](CC=O)C[C@@H](C)C(=N\OCCOc2ccccc2)/C=C/C(C)=C/C1CO (some centres unmarked) [Compound IIb] | >12.5 | 0.78 | more active than compound Ia | 0.39 | 1.56 | 1.56 | >12.5 | >12.5 | >12.5 | 0.025 | 0.20 | 0.20 | 0.025 | 1.56 | 0.20 | >12.5
CCC1OC(=O)CC(O)C(C)C(OC2OC(C)C(O)C(N(C)C)C2O)C(CC=O)CC(C)C(=NOCC#Cc2cnc3ccccc3c2)C=CC(C)=CC1CO (single isomer, unassigned) [Compound E] | >12.5 | 0.098 | more active than compound D | 0.098 | 0.39 | 0.39 | >12.5 | >12.5 | >12.5 | 0.025 | 0.025 | 0.025 | 0.025 | >12.5 | 0.049 | >12.5
